According to paper PMC6270666, “Flavonoids with M1 Muscarinic Acetylcholine Receptor Binding Activity” (Molecules, 2014):
Read-outs that look alike come from different tables or passages of the source. Each block holds one compound with its values, some of them ahead of it.

Experiments:
[1] = target: T1, cloned human M1 mAChRs (Homo sapiens, UniProt P11229); assay: M1 mAChR radioligand binding assay ([3H]N-methylscopolamine displacement)
T1 construct: purchased Perkin Elmer; host or cells: stably transfected CHO-K1 cell lines (membrane preparation)
T1 sequence (P11229 1-460): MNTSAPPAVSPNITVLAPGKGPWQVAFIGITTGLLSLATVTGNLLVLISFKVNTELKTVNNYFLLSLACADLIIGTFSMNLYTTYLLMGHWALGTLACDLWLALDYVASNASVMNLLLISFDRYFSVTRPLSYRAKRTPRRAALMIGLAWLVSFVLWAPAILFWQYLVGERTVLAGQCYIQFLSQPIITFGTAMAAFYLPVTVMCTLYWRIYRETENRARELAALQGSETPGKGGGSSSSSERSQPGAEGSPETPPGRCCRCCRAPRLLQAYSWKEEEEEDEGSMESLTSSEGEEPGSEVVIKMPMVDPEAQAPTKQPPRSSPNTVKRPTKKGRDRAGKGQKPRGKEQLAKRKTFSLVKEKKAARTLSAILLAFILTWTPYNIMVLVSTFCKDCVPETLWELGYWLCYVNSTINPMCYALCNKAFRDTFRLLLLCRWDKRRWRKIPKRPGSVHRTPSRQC

[2] = test system: DYRK1A; design: method as in PMID 22673832; conditions: cited from earlier work
[3] = test system: CLK1; design: method as in PMID 22673832; conditions: cited from earlier work
[4] = test system: cholinesterase; design: method as in PMID 20030514; conditions: cited from earlier work
[5] = test system: SH-SY5Y neuroblastoma cells; conditions: cited from earlier work
[6] = test system: streptozotocin-induced diabetic rats; design: method as in PMID 23415807; conditions: cited from earlier work
[7] = test system: amyloid β25-35 peptide-induced toxicity in mice; conditions: cited from earlier work
[8] = Cheng-Prusoff from IC50, [3H]N-methylscopolamine 0.2 nM, M1 mAChR membranes from CHO-K1 cells, mean ± SEM (n = 2), read-out: Ki
[9] = displacement of [3H]N-methylscopolamine 0.2 nM, M1 mAChR membranes from CHO-K1 cells, 27 °C, 120 min, mean ± SEM (n = 2), read-out: IC50

Ki [1, 8]: 107 ± 11 µM
IC50 [1, 9]: 257 ± 27 µM
Compound: COc1cc(-c2cc(=O)c3c(OC)c(OC)c(OC)cc3o2)cc(OC)c1OC [Compound 4, 3',4',5',5,6,7-Hexamethoxyflavone]

Ki [1, 8]: 42 ± 3 µM
IC50 [1, 9]: 101 ± 6 µM
Compound: COc1cc(O)c2c(=O)c(O)c(-c3ccc(OC)c(O)c3)oc2c1 [Compound 9, 3ʹ,3,5-Trihydroxy-4ʹ,7-dimethoxyflavone]
inhibition of DYRK1A kinase [2]: potent inhibitor
inhibition of CLK1 kinase [3]: potent inhibitor

IC50 [1, 9]: > 10000 µM
Compound: O=c1c(O)c(-c2ccc(O)c(O)c2)oc2cc(O)cc(O)c12 [Compound 12, Quercetin]

IC50 [1, 9]: > 10000 µM
melting point: 225 to 226 °C
Compound: COc1ccc(-c2oc3cc(OC)c(OC)cc3c(=O)c2O)cc1OC [Compound 10, 3-Hydroxy-3ʹ,4ʹ,6,7-tetramethoxyflavone]

IC50 [1, 9]: > 10000 µM
Compound: O=c1c(O)c(-c2ccc(O)c(O)c2)oc2cc(O)ccc12 [Compound 8, Fisetin]

IC50 [1, 9]: > 10000 µM
Compound: O=c1c(O)c(-c2ccc(O)cc2)oc2cc(O)cc(O)c12 [Compound 11, Kaempferol]

The next lines start with the compound.

Compound: COc1ccc(-c2cc(=O)c3c(OC)c(OC)c(OC)cc3o2)cc1OC [Compound 3, 3',4',5,6,7-Pentamethoxyflavone]
IC50 [1, 9]: > 10000 µM

Compound: O=c1c(O)c(-c2cc(O)c(O)c(O)c2)oc2cc(O)cc(O)c12 [Compound 13, Myricetin]
IC50 [1]: > 10000 µM

Compound: COc1cc(OC)c2c(=O)cc(-c3cc(OC)c(OC)c(OC)c3)oc2c1 [Compound 2, 3',4',5',5,7-Pentamethoxyflavone]
IC50 [1, 9]: > 10000 µM
melting point: 195 °C

Compound: O=c1cc(-c2ccc(O)c(O)c2)oc2cc(O)cc(O)c12 [Compound 6, Luteolin]
IC50 [1]: 226 ± 14 µM
Ki [1]: 94 ± 6 µM
cholinesterase inhibitory activity [4]: cholinesterase inhibitory activity
effect on hydrogen peroxide-induced apoptosis [5]: protective effects
effect on cognitive decline [6]: attenuation of cognitive decline
effect against amyloid β25-35 peptide-induced toxicity [7]: anti-amnesic effects

Compound: O=c1cc(-c2ccc(O)cc2)oc2cc(O)cc(O)c12 [Compound 5, Apigenin]
IC50 [1]: > 10000 µM

Compound: COc1cc(OC)c2c(=O)cc(-c3ccc(OC)c(OC)c3)oc2c1 [Compound 1, 3',4',5,7-Tetramethoxyflavone]
IC50 [1]: > 10000 µM
